Data: patent US6673608B1, “Somatic embryogenic regeneration of Acacia mangium” (Institute of Molecular Agrobiology, priority 2002, dated 2004)

How the values were obtained:
[1] = test system: A. mangium immature embryo axes; assay: Embryogenic callus induction from immature embryo axes; assay type: cell-based, Acacia mangium; settings: immature embryo axes on MS basal medium
Procedure: One and half months old immature green pods were collected from twenty-meter high adult A. mangium Willd. trees at Science Park Drive of Singapore. Green seeds were gently isolated from pods and washed with sterile double deionized water (ddH2O) 4-5 times. After green seeds were surface sterilised with 30% market clorox bleach (NaClO) for 5 minutes and washed with sterile ddH2O 5 times, the seeds were sterilised again with 0.1% HgCl2 for 6 minutes and washed with sterile ddH2O 5 times. Seed coats were removed with sterilised forceps and embryos were isolated. Embryo axes (EA) (FIG. 1A) were gently separated with sterile forceps and used as explants for embryogenic callus induction.
All media were adjusted to pH 5.8 after autoclaving at 121° C. for 25 min. Plant growth regulators tested in experiments were added into media after autoclaving but other additional substances were added into media before autoclaving. All cultures were maintained under the warm white fluorescent lights at a range of irradiance of 23.41-26.01 μmol.s^−1m^−2, with 16 h photoperiod and at 28° C. […]

globular somatic embryos = assay: Somatic embryo maturation (two-step maturation procedure); assay type: cell-based, Acacia mangium; settings: ½ MS maturation media
Procedure: All media were adjusted to pH 5.8 after autoclaving at 121° C. for 25 min. Plant growth regulators tested in experiments were added into media after autoclaving but other additional substances were added into media before autoclaving. All cultures were maintained under the warm white fluorescent lights at a range of irradiance of 23.41-26.01 μmol.s^−1m^−2, with 16 h photoperiod and at 28° C.
Globular embryos (FIGS. 1B-C) induced from induction medium containing IAA 0.25 mg/l and TDZ 2.0 mg/l (AM-304) were cultured on ½ MS basal medium supplemented with 0-5.0 mg/l of GA3, 30-50 g/l of sucrose, Vc 100 mg/l, Asn 150 mg/l, CH 100 mg/l, Gln 150 mg/l, Pro 150 mg/l, phytagel 0.35% (g/l), and activated charcoal 0.1% for thirty days. Somatic embryos were then transferred onto maturation medium AM-425 and cultured for 40 days. Cotyledon somatic embryos (mature somatic embryos) were then transferred onto the medium AM-424 for germination. Each experiment was repeated twice with a total of 250 globular somatic embryos for each medium combination. Seedlings were transferred to ½ MS basal medium containing sucrose 20 g/l as well as phytagel 0.35% and cultured for two months before being transferred to pot soil consisting of peat soil: sand (3:1). […]

## O=C(Nc1ccccc1)Nc1cnns1 [TDZ, 1-Phenyl-3-(1,2,3-thiadiazol-5-yl)Urea]
[1]
  embryogenic callus induction / somatic embryogenesis (result in words): effective to induce embryogenic callus

## C=C1C[C@]23C[C@@]1(O)CC[C@H]2[C@@]12C=C[C@H](O)[C@@](C)(C(=O)O1)[C@H]2[C@@H]3C(=O)O [GA3, Gibberellic Acid]
Globular somatic embryos
  development of globular somatic embryos to torpedo and cotyledon stage (result in words): promoted somatic embryo maturation
